In test [1] the test system is SOCE (store operated calcium entry) in CHO cells. Kind of test: Assay of SOCE (store operated calcium entry)-inhibiting action. To be noted: CHO cells, thapsigargin; for inhibition at 10 µM / inhibition at 30 µM / inhibition at 100 µM: Cricetulus griseus, CHO, read-out: SOCE level (percentage of inhibition). The test is classed as cell-based, Chinese hamster. The procedure, abridged: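 CHO cells in calcium-free BSS received compound, then 1 μM thapsigargin 2 min later to deplete stores; after 9 min, 2 mM calcium chloride (final) added. Percent inhibition of the rise in intracellular calcium determined at various compound concentrations.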

The subject of test [2] is IICR (IP3 induced calcium release) in CHO cells. In words: Assay of IICR (IP3 induced calcium release)-inhibiting action. The conditions noted are these: CHO cells, 10 μM ATP; for inhibition at 10 µM / inhibition at 30 µM / inhibition at 100 µM: Cricetulus griseus, CHO, read-out: IICR level (percentage of inhibition). The test is classed as cell-based, Chinese hamster. The procedure, abridged:
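Inhibition (%) of the intracellular calcium increase triggered by 10 μM ATP, measured in CHO cells in BSS with calcium. Compound given 1 min after the buffer exchange and 2 min before ATP; values reported per compound concentration.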

As a reminder, the inhibition is the relative decrease from the control value, in per cent. Take `Cc1ccsc1C(=O)CCN(Cc1ccccc1)C(C)(C)C` [Example 314, 2-(N-benzyl-t-butyl)aminoethyl-3-methyl-2-thienylketone]: the inhibition at 10 µM in test [1] (test compound 10 μmol) was 0%; in test [2] (test compound 10 μmol), 70%. For the same compound, the inhibition at 30 µM came to 10% in test [1] (test compound 30 μmol) and 70% in test [2] (test compound 30 μmol). The inhibition at 100 µM in test [1] (test compound 100 μmol) was 20%; in test [2] (test compound 100 μmol), 100%.
Take `Cc1csc(C(=O)CCN(Cc2ccccc2)C(C)(C)C)c1` [Example 315, 2-(N-benzyl-t-butyl)aminoethyl-4-methyl-2-thienylketone]: the inhibition at 10 µM in test [1] (test compound 10 μmol) was determined as 0%; in test [2] (test compound 10 μmol) it was 80%. Further, the inhibition at 30 µM amounted to 0% in test [1] (test compound 30 μmol) and 90% in test [2] (test compound 30 μmol). Also, the inhibition at 100 µM in test [1] (test compound 100 μmol) turned out to be 30%; in test [2] (test compound 100 μmol), 100%.
Take `Cc1ccc(C(=O)CCN(Cc2ccccc2)C(C)(C)C)s1` [Example 316, 2-(N-benzyl-t-butyl)aminoethyl-5-methyl-2-thienylketone]: the results for the inhibition at 10 µM in test [1] (test compound 10 μmol) and in test [2] (test compound 10 μmol) were 0% and 70%, respectively. Besides, the results for the inhibition at 30 µM in test [1] (test compound 30 μmol) and in test [2] (test compound 30 μmol) were 10% and 80%, respectively. Besides, the inhibition at 100 µM in test [1] (test compound 100 μmol) is 20%; in test [2] (test compound 100 μmol), 100%.
In the case of `CC(C)(C)N(CCC(=O)c1ccc2c(c1)OCCO2)Cc1ccccc1` [Example 317, 2-(N-benzyl-t-butyl)aminoethyl-5,6-ethylenedioxy-2-phenylketone], the inhibition at 10 µM in test [1] (test compound 10 μmol) is 10%; in test [2] (test compound 10 μmol), 90%. Also, the results for the inhibition at 30 µM in test [1] (test compound 30 μmol) and in test [2] (test compound 30 μmol) were 10% and 95%, respectively. Also, the inhibition at 100 µM in test [1] (test compound 100 μmol) worked out at 30%; in test [2] (test compound 100 μmol), 100%.
Regarding `Cc1ccc(C(=O)CCN(Cc2ccccc2)C(C)C)s1` [Example 318, 2-(N-benzylisopropyl)aminoethyl-5-methyl-2-thienylketone], the inhibition at 10 µM in test [1] (test compound 10 μmol) and in test [2] (test compound 10 μmol) was 10% each time. The inhibition at 30 µM came to 20% in test [1] (test compound 30 μmol) and 60% in test [2] (test compound 30 μmol). Also, the inhibition at 100 µM in test [1] (test compound 100 μmol) was 40%; in test [2] (test compound 100 μmol) it was 80%.
With `CCN(CCC(=O)c1ccc(C)s1)Cc1ccccc1` [Example 319, 2-(N-benzylethyl)aminoethyl-5-methyl-2-thienylketone], the results for the inhibition at 10 µM in test [1] (test compound 10 μmol) and in test [2] (test compound 10 μmol) were 0% and 20%, respectively. Also, the inhibition at 30 µM in test [1] (test compound 30 μmol) and in test [2] (test compound 30 μmol) was 10% throughout. Besides, the inhibition at 100 µM in test [1] (test compound 100 μmol) is 20%; in test [2] (test compound 100 μmol), 70%.
`O=C(CCN(CCO)CCO)c1ccc(I)s1` [Example 320]: the values for the inhibition at 10 µM in test [1] (test compound 10 μmol) and in test [2] (test compound 10 μmol) were 20% and 0%, respectively. Further, the inhibition at 30 µM in test [1] (test compound 30 μmol) is 40%; in test [2] (test compound 30 μmol), 0%. For the same compound, the inhibition at 100 µM in test [1] (test compound 100 μmol) worked out at 50%; in test [2] (test compound 100 μmol), 70%.
Take `Cc1csc(C(=O)CCN(Cc2ccccc2)C(C)C)c1` [Example 321, 2-(N-benzylisopropyl)aminoethyl-4-methyl-2-thienylketone]: the results for the inhibition at 10 µM in test [1] (test compound 10 μmol) and in test [2] (test compound 10 μmol) were 0% and 20%, respectively. For the same compound, the inhibition at 30 µM amounted to 0% in test [1] (test compound 30 μmol) and 70% in test [2] (test compound 30 μmol). For the same compound, the results for the inhibition at 100 µM in test [1] (test compound 100 μmol) and in test [2] (test compound 100 μmol) were 0% and 100%, respectively.
Turning to `Cc1csc(C(=O)CCN(Cc2ccccc2)Cc2ccccc2)c1` [Example 322, 2-(N-dibenzyl)aminoethyl-4-methyl-2-thienylketone], the values for the inhibition at 10 µM in test [1] (test compound 10 μmol) and in test [2] (test compound 10 μmol) were 0% and 10%, respectively. Besides, the values for the inhibition at 30 µM in test [1] (test compound 30 μmol) and in test [2] (test compound 30 μmol) were 10% and 20%, respectively. Besides, the inhibition at 100 µM in test [1] (test compound 100 μmol) worked out at 20%; in test [2] (test compound 100 μmol), 30%.
Take `Cc1csc(C(=O)CCN(CCO)Cc2ccccc2)c1` [Example 323, 2-(N-benzylhydroxyethyl)aminoethyl-4-methyl-2-thienylketone]: the results for the inhibition at 10 µM in test [1] (test compound 10 μmol) and in test [2] (test compound 10 μmol) were 0% and 30%, respectively. Besides, the inhibition at 30 µM in test [1] (test compound 30 μmol) is 0%; in test [2] (test compound 30 μmol), 50%. In addition, the inhibition at 100 µM in test [1] (test compound 100 μmol) and in test [2] (test compound 100 μmol) was 30% throughout.
For the compound `CC(C)(C)N(CCC(=O)c1ccc(Br)cc1)Cc1ccccc1` [Example 324, 2-(N-benzyl-t-butyl)aminoethyl-4-bromophenylketone], the values for the inhibition at 10 µM in test [1] (test compound 10 μmol) and in test [2] (test compound 10 μmol) were 20% and 50%, respectively. For the same compound, the inhibition at 30 µM is 20% in test [1] (test compound 30 μmol) and 40% in test [2] (test compound 30 μmol). Also, the inhibition at 100 µM came to 20% in test [1] (test compound 100 μmol) and 40% in test [2] (test compound 100 μmol).
`O=C(CCN(Cc1ccccc1)Cc1ccccc1)c1ccc(Br)s1` [Example 325, 2-(N-dibenzyl)aminoethyl-5-bromo-2-thienylketone]: the inhibition at 10 µM in test [1] (test compound 10 μmol) came out at 0%; in test [2] (test compound 10 μmol) it was 20%. The inhibition at 30 µM in test [1] (test compound 30 μmol) and in test [2] (test compound 30 μmol) was 20% throughout. Further, the inhibition at 100 µM was 40% in test [1] (test compound 100 μmol) and 50% in test [2] (test compound 100 μmol).
Take `CN(CCC(=O)c1ccc(Br)s1)Cc1ccccc1` [Example 326, 2-(N-benzylmethyl)aminoethyl-5-bromo-2-thienylketone]: the results for the inhibition at 10 µM in test [1] (test compound 10 μmol) and in test [2] (test compound 10 μmol) were 10% and 40%, respectively. Also, the inhibition at 30 µM amounted to 30% in test [1] (test compound 30 μmol) and 10% in test [2] (test compound 30 μmol). The inhibition at 100 µM in test [1] (test compound 100 μmol) came to 60%; in test [2] (test compound 100 μmol), 40%.
For `O=C(CCN(CCO)Cc1ccccc1)c1ccc(Br)s1` [Example 327, 2-(N-benzylhydroxyethyl)aminoethyl-5-bromo-2-thienylketone], the inhibition at 10 µM in test [1] (test compound 10 μmol) came to 20%; in test [2] (test compound 10 μmol), 70%. The results for the inhibition at 30 µM in test [1] (test compound 30 μmol) and in test [2] (test compound 30 μmol) were 20% and 10%, respectively. Also, the inhibition at 100 µM is 30% in test [1] (test compound 100 μmol) and 40% in test [2] (test compound 100 μmol).
As for `CN(CCO)CCC(=O)c1ccc(Br)s1` [Example 328, 2-(N-hydroxyethylmethyl)aminoethyl-5-bromo-2-thienylketone], the inhibition at 10 µM turned out to be 10% in test [1] (test compound 10 μmol) and 0% in test [2] (test compound 10 μmol). Also, the inhibition at 30 µM in test [1] (test compound 30 μmol) and in test [2] (test compound 30 μmol) was 10% each time. The results for the inhibition at 100 µM in test [1] (test compound 100 μmol) and in test [2] (test compound 100 μmol) were 0% and 80%, respectively.
For `CC(C)N(CCO)CCC(=O)c1ccc(Br)s1` [Example 329, 2-(N-hydroxyethylisopropyl)aminoethyl-5-bromo-2-thienylketone], the figures for the inhibition at 10 µM in test [1] (test compound 10 μmol) and in test [2] (test compound 10 μmol) were 20% and 0%, respectively. Besides, the values for the inhibition at 30 µM in test [1] (test compound 30 μmol) and in test [2] (test compound 30 μmol) were 20% and 10%, respectively. For the same compound, the inhibition at 100 µM in test [1] (test compound 100 μmol) was 10%; in test [2] (test compound 100 μmol), 50%.
As to `O=C(CCN(CCO)CCO)c1ccc(Br)s1` [Example 330, 2-(N-bishydroxyethyl)aminoethyl-5-bromo-2-thienylketone], the inhibition at 10 µM was determined as 10% in test [1] (test compound 10 μmol) and 30% in test [2] (test compound 10 μmol). Besides, the inhibition at 30 µM in test [1] (test compound 30 μmol) is 10%; in test [2] (test compound 30 μmol) it was 40%. Moreover, the inhibition at 100 µM in test [1] (test compound 100 μmol) turned out to be 20%; in test [2] (test compound 100 μmol), 50%.
Consider `CCN(CCO)CCC(=O)c1ccc(Br)s1` [Example 331, 2-(N-2-hydroxyethylethyl)aminoethyl-5-bromo-2-thienylketone], for which the inhibition at 10 µM in test [1] (test compound 10 μmol) and in test [2] (test compound 10 μmol) was 0% throughout. The inhibition at 30 µM in test [1] (test compound 30 μmol) and in test [2] (test compound 30 μmol) was 10% throughout. Also, the inhibition at 100 µM in test [1] (test compound 100 μmol) stood at 20%; in test [2] (test compound 100 μmol), 70%.
Take `CC(C)(C)N(CCO)CCC(=O)c1ccc(Br)s1` [Example 332, 2-(N-hydroxyethyl-t-butyl)aminoethyl-5-bromo-2-thienylketone]: the “SOCE level (percentage of inhibition)” value came to 0% in test [1] (test compound 10 μmol), 10% in test [1] (test compound 30 μmol) and 20% in test [1] (test compound 100 μmol). The figures for the “IICR level (percentage of inhibition)” value in test [2] (test compound 10 μmol), in test [2] (test compound 30 μmol) and in test [2] (test compound 100 μmol) were 0%, 10% and 50%, respectively.
`O=C(CCN1CCCC1CO)c1ccc(Br)s1` (stereo not drawn) [Example 333, 2-(2-hydroxymethylpyrrolidinyl)aminoethyl-5-bromo-2-thienylketone]: the inhibition at 10 µM in test [1] (test compound 10 μmol) is 20%; in test [2] (test compound 10 μmol), 0%. Also, the inhibition at 30 µM in test [1] (test compound 30 μmol) and in test [2] (test compound 30 μmol) was 30% throughout. Besides, the inhibition at 100 µM in test [1] (test compound 100 μmol) was determined as 20%; in test [2] (test compound 100 μmol), 50%.
Turning to `NCCN(CCO)CCC(=O)c1ccc(Br)s1` [Example 334, 2-(N-2-hydroxyethyl-N-2-aminoethyl)aminoethyl-5-bromo-2-thienylketone], the inhibition at 10 µM in test [1] (test compound 10 μmol) came to 30%; in test [2] (test compound 10 μmol), 20%. Besides, the inhibition at 30 µM in test [1] (test compound 30 μmol) amounted to 30%; in test [2] (test compound 30 μmol), 0%. The inhibition at 100 µM in test [1] (test compound 100 μmol) is 40%; in test [2] (test compound 100 μmol) it was 60%.

The record behind these values is patent US8937091B2 (Japan Science and Technology Agency, priority 2009, dated 2015).
